Our source for the IC50 values is patent US20250206722A1, “SMALL MOLECULE INHIBITORS OF TEA DOMAIN FAMILY MEMBERS” (The Scripps Research Institute, priority 2022, published 2025).

Test [1] concerns transcriptional activity of TEADs. Put plainly: TEAD reporter assay (MCF7 TEAD-LUC reporter cells). In kind it is cell-based. To be noted: Homo sapiens, 24 hours, BrightGlo luminescence. The method, boiled down: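 MCF7 TEAD-LUC reporter cells were plated at 5,000/well and after 24 h treated with a 20-point 1:2 series from 20 μM final, in triplicate. Luciferase was read by BrightGlo luminescence after 24 h exposure at 37 °C.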

Another test has as its system NCI-H226 cells. Put plainly: NCI-H226 proliferation assay (in house). Format: cell-based. The settings on record: Homo sapiens, 120 h, 5 days, Cell TiterGlo, 20-point 1:2 dilution from 20 μM. The method, boiled down: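 Cells in RPMI 1640 + 10% FBS, 500 per well, dosed after 24 h with 20-point 1:2 dilutions from 20 μM (final), in triplicate. After 5 days at 37 °C, 5% CO2, viability read by CellTiter-Glo luminescence.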

As to `CN(C#N)C(=O)N1CCN(c2nccnc2Nc2ccc(C(F)(F)F)cc2)CC1` [Example 185, N-cyano-N-methyl-4-(3-((4-(trifluoromethyl)phenyl)amino)pyrazin-2-yl)piperazine-1-carboxamide], the IC50 in test [1] is > 20000 nM; in the test with NCI-H226 cells, > 20 µM.

In the case of `C=C(F)C(=O)N1CC=C(c2nccnc2Nc2ccc(C(F)(F)F)nc2)CC1` [Example 56, 2-fluoro-1-(4-(3-((6-(trifluoromethyl)pyridin-3-yl)amino)pyrazin-2-yl)-3,6-dihydropyridin-1(2H)-yl)prop-2-en-1-one], the IC50 worked out at 16.5 nM in test [1] and 0.145 µM in the test on NCI-H226 cells.

Take `C=C(F)C(=O)N1CCN(c2ncccc2Nc2ccc(C(F)(F)F)nc2)CC1` [Example 135, 2-fluoro-1-(4-(3-((6-(trifluoromethyl)pyridin-3-yl)amino)pyridin-2-yl)piperazin-1-yl)prop-2-en-1-one]: the IC50 in test [1] turned out to be 410 nM; in the test on NCI-H226 cells it was 1.67 µM.

On to `C=C(F)C(=O)N1CCC(c2cccnc2Nc2ccc(OC(F)(F)F)nc2)CC1` [Example 152, 2-fluoro-1-(4-(2-((6-(trifluoromethoxy)pyridin-3-yl)amino)pyridin-3-yl)piperidin-1-yl)prop-2-en-1-one], for which the IC50 in test [1] turned out to be 13500 nM; in the test on NCI-H226 cells, 22.2 µM.

For `C=CC(=O)N1CCN(c2cnncc2Nc2ccc(C(F)(F)F)cc2)CC1` [Example 122, 1-(4-(5-((4-(trifluoromethyl)phenyl)amino)pyridazin-4-yl)piperazin-1-yl)prop-2-en-1-one], the half-inhibitory concentration (IC50) in test [1] was 6.8 nM; in the test on NCI-H226 cells it was > 10 µM.

As to `C=C(F)C(=O)N1CC=C(c2cccnc2Nc2ccc(OC(F)(F)F)nc2)CC1` [Example 148, 2-fluoro-1-(2-((6-(trifluoromethoxy)pyridin-3-yl)amino)-3′,6′-dihydro-[3,4′-bipyridin]-1′(2′H)-yl)prop-2-en-1-one], the IC50 was 66 nM in test [1] and 0.341 µM in the test on NCI-H226 cells.

`N#C/C=C\C(=O)N1CCN(c2nccnc2Nc2ccc(C(F)(F)F)cc2)CC1` [Example 182, (Z)-4-oxo-4-(4-(3-((4-(trifluoromethyl)phenyl)amino)pyrazin-2-yl)piperazin-1-yl)but-2-enenitrile]: the results for the IC50 (in test [1]; with NCI-H226 cells) were 1.2 nM and 0.034 µM, respectively.

In the case of `C=CC(=O)N1CCN(c2nccnc2N(C)c2ccc(C(F)(F)F)cn2)CC1` [Example 42, 1-(4-(3-(methyl(5-(trifluoromethyl)pyridin-2-yl)amino)pyrazin-2-yl)piperazin-1-yl)prop-2-en-1-one], the IC50 in test [1] was found to be 17 nM; in the test with NCI-H226 cells, 0.166 µM.

Take `N#C/C=C\C(=O)N1CCN(c2nccnc2Nc2ccc(C(F)(F)F)nc2)CC1` [Example 184, (Z)-4-oxo-4-(4-(3-((6-(trifluoromethyl)pyridin-3-yl)amino)pyrazin-2-yl)piperazin-1-yl)but-2-enenitrile]: the IC50 in test [1] came to 164 nM; in the test on NCI-H226 cells, 1.45 µM.

For the compound `C#CCN(CCOc1nccnc1Nc1ccc(C(F)(F)F)cc1)C(=O)C=C` [Example 193, N-(prop-2-yn-1-yl)-N-(2-((3-((4-(trifluoromethyl)phenyl)amino)pyrazin-2-yl)oxy)ethyl)acrylamide], the IC50 in test [1] was 203 nM; in the test on NCI-H226 cells, > 20 µM.

With `C=CC(=O)N1CCN(c2ccccc2Nc2ccc(C(F)(F)F)cc2)CC1` [Example 162, 1-(4-(2-((4-(trifluoromethyl)phenyl)amino)phenyl)piperazin-1-yl)prop-2-en-1-one], the IC50 in test [1] amounted to 1.1 nM; with NCI-H226 cells it was 0.192 µM.

Turning to `C=CC(=O)N1CCN(c2ncccc2C(=O)N2CCC(F)(F)CC2)CC1` [Example 161, 1-(4-(3-(4,4-difluoropiperidine-1-carbonyl)pyridin-2-yl)piperazin-1-yl)prop-2-en-1-one], the figures for the IC50 (in test [1]; in the test with NCI-H226 cells) were 1730 nM and > 20 µM, respectively.

As to `C=CC(=O)N1CCC(c2cccnc2Nc2ccc(OC(F)(F)F)nc2)CC1` [Example 151, 1-(4-(2-((6-(trifluoromethoxy)pyridin-3-yl)amino)pyridin-3-yl)piperidin-1-yl)prop-2-en-1-one], the IC50 in test [1] stood at 188 nM; with NCI-H226 cells it was 1.05 µM.

On to `C=CC(=O)N1CCN(c2nccnc2Nc2ccc(C(F)F)nc2)CC1` [Example 47, 1-(4-(3-((6-(difluoromethyl)pyridin-3-yl)amino)pyrazin-2-yl)piperazin-1-yl)prop-2-en-1-one], for which the values for the IC50 (in test [1]; with NCI-H226 cells) were 4 nM and 0.043 µM, respectively.

Take `C=C(CN1CC(c2nccnc2Oc2ccc(C(F)(F)F)nc2)C1)C(=O)O` [Example 86, 2-((3-(3-((6-(trifluoromethyl)pyridin-3-yl)oxy)pyrazin-2-yl)azetidin-1-yl)methyl)acrylic acid]: the IC50 was found to be 31000 nM in test [1] and 3.01 µM in the test on NCI-H226 cells.

In the case of `C=CC(=O)N1CCN(c2nccnc2Oc2ccc(OC)cc2)CC1` [Example 70, 1-(4-(3-(4-methoxyphenoxy)pyrazin-2-yl)piperazin-1-yl)prop-2-en-1-one], the IC50 in test [1] came out at 3 nM; in the test with NCI-H226 cells it was 0.028 µM.

`C=C(F)C(=O)N1CC=C(c2cccnc2Oc2cnc(C(F)(F)F)nc2)CC1` [Example 158, 2-fluoro-1-(2-((2-(trifluoromethyl)pyrimidin-5-yl)oxy)-3′,6′-dihydro-[3,4′-bipyridin]-1′(2′H)-yl)prop-2-en-1-one]: the IC50 in test [1] came to 3.9 nM; in the test with NCI-H226 cells, 0.027 µM.

As for `C=CC(=O)N1CCN(c2ncccc2C(O)c2ccc(C(F)(F)F)nc2)CC1` (stereo not shown) [Example 142, 1-(4-(3-(hydroxy(6-(trifluoromethyl)pyridin-3-yl)methyl)pyridin-2-yl)piperazin-1-yl)prop-2-en-1-one], the IC50 in test [1] was 2.3 nM; in the test with NCI-H226 cells, 7.28 µM.

Regarding `O=C(C(O)CO)N1CCN(c2nccnc2Nc2ccc(C(F)(F)F)cc2)CC1` (stereo not shown) [Example 180, 2,3-dihydroxy-1-(4-(3-((4-(trifluoromethyl)phenyl)amino)pyrazin-2-yl)piperazin-1-yl)propan-1-one], the IC50 in test [1] is > 20000 nM; in the test on NCI-H226 cells it was > 20 µM.

Take `C=CC(=O)N1CCN(c2nccnc2C(=O)N2CCC(F)(F)CC2)CC1` [Example 104, 1-(4-(3-(4,4-difluoropiperidine-1-carbonyl)pyrazin-2-yl)piperazin-1-yl)prop-2-en-1-one]: the figures for the IC50 (in test [1]; in the test on NCI-H226 cells) were 2220 nM and 2.74 µM, respectively.

As for `C=C(F)C(=O)N1CC=C(c2cnc(C)nc2Oc2ccc(C(F)(F)F)nc2)CC1` [Example 130, 2-fluoro-1-(4-(2-methyl-4-((6-(trifluoromethyl)pyridin-3-yl)oxy)pyrimidin-5-yl)-3,6-dihydropyridin-1(2H)-yl)prop-2-en-1-one], the IC50 in test [1] was determined as 1.1 nM; with NCI-H226 cells, 1.33 µM.

For `C=CC(=O)N1CCN(c2nccnc2Oc2ccc(C(F)(F)F)nc2)CC1` [Example 77, 1-(4-(3-((6-(trifluoromethyl)pyridin-3-yl)oxy)pyrazin-2-yl)piperazin-1-yl)prop-2-en-1-one], the IC50 in test [1] came out at 1.8 nM; in the test with NCI-H226 cells, 0.008 µM.

For `C=C(F)C(=O)N1CCN(c2nc(C)c(C)nc2Nc2ccc(C(F)(F)F)nc2)CC1` [Example 114, 1-(4-(5,6-dimethyl-3-((6-(trifluoromethyl)pyridin-3-yl)amino)pyrazin-2-yl)piperazin-1-yl)-2-fluoroprop-2-en-1-one], the IC50 was 4.4 nM in test [1] and 0.072 µM with NCI-H226 cells.

`C=CC(=O)N1CCN(c2nccnc2Nc2ccc(C(F)(F)F)nc2)C[C@H]1C` [Example 54, (R)-1-(2-methyl-4-(3-((6-(trifluoromethyl)pyridin-3-yl)amino)pyrazin-2-yl)piperazin-1-yl)prop-2-en-1-one]: the IC50 in test [1] was determined as 9 nM; with NCI-H226 cells, 0.192 µM.

As for `C=C(F)C(=O)N1CCC(c2ncccc2Oc2ccc(C(F)(F)F)nc2)CC1` [Example 139, 2-fluoro-1-(4-(3-((6-(trifluoromethyl)pyridin-3-yl)oxy)pyridin-2-yl)piperidin-1-yl)prop-2-en-1-one], the IC50 worked out at 3240 nM in test [1] and 7.03 µM in the test on NCI-H226 cells.

Consider `C=CC(=O)N1CCN(c2ncccc2C(=O)c2ccc(C(F)(F)F)nc2)CC1` [Example 141, 1-(4-(3-(6-(trifluoromethyl)nicotinoyl)pyridin-2-yl)piperazin-1-yl)prop-2-en-1-one], for which the IC50 in test [1] is 7.5 nM; in the test with NCI-H226 cells it was 0.5 µM.

Consider `C=CC(=O)N1CC=C(c2ncccc2Oc2ccc(C(F)(F)F)nc2)CC1` [Example 136, 1-(3-((6-(trifluoromethyl)pyridin-3-yl)oxy)-3′,6′-dihydro-[2,4′-bipyridin]-1′(2′H)-yl)prop-2-en-1-one], for which the IC50 stood at 66 nM in test [1] and 0.341 µM in the test on NCI-H226 cells.

Regarding `C=C(F)C(=O)N1CCC(c2cnc(C)nc2Oc2ccc(C(F)(F)F)nc2)CC1` [Example 132, 2-fluoro-1-(4-(2-methyl-4-((6-(trifluoromethyl)pyridin-3-yl)oxy)pyrimidin-5-yl)piperidin-1-yl)prop-2-en-1-one], the IC50 came out at 451 nM in test [1] and 4.31 µM in the test on NCI-H226 cells.

Regarding `C=C(F)C(=O)N1CC=C(c2ncccc2Oc2ccc(C(F)(F)F)nc2)CC1` [Example 137, 2-fluoro-1-(3-((6-(trifluoromethyl)pyridin-3-yl)oxy)-3′,6′-dihydro-[2,4′-bipyridin]-1′(2′H)-yl)prop-2-en-1-one], the half-maximal inhibitory concentration (IC50) was 22 nM in test [1] and 0.243 µM with NCI-H226 cells.
